In the test the target is T1, RXFP1 (Homo sapiens, UniProt Q9HBX9).
T1 construct: OVCAR5 cells expressing endogenous RXFP1; endogenous in cells; host or cells: OVCAR5
T1 sequence (Q9HBX9 1-757): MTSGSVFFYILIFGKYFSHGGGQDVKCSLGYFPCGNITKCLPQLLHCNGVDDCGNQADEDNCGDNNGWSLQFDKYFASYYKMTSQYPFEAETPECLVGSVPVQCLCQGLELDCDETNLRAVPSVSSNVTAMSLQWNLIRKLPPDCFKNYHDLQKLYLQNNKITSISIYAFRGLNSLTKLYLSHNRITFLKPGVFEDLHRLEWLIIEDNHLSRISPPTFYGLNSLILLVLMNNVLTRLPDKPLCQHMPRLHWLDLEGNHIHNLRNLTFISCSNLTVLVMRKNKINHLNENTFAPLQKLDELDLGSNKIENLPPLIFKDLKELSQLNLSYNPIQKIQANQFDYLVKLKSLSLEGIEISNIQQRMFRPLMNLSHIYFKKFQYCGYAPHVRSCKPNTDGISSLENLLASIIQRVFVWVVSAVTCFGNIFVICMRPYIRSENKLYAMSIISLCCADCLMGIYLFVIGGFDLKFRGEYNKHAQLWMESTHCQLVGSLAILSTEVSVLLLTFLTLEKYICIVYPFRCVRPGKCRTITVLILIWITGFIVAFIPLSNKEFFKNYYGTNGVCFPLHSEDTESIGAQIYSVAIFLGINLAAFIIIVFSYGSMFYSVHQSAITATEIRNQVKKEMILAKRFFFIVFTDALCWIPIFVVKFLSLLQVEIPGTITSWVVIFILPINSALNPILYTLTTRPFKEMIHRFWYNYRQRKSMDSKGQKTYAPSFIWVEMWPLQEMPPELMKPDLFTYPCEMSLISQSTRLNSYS
Kind of test: OVCAR5 cAMP assay (HTRF). In kind it is cell-based. The note with it: for EC50: OVCAR 5 cells expressing endogenous RXFP1, cAMP readout; for Emax: OVCAR 5 cells, maximal cAMP relative to H2-relaxin. The procedure, abridged: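 Peptide agonism measured as intracellular cAMP (HTRF) after 30 min at 37° C in serum-free medium, following 40 min 1 mM IBMX preincubation of OVCAR5 cells. Nonlinear regression gave EC50; Emax % = 100 × compound maximal cAMP / H2-relaxin maximal cAMP.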

Starred links: 1 amine or outer side, 2 acyl side, 3 side chain; linkers in the order of their positions; H or OH if unused. Non-standard residues stand in square brackets, D forms with d. Residues, ends and D or L forms follow the SMILES beside them. Groups on a side chain read outwards from the residue. *: point of attachment. X1 = CCCCCCCCCCCCCCCC(=O)N[C@@H](CCC(=O)N[C@@H](CCC(=O)N[C@@H](CCC(=O)NCCCOCCOCCOCCCNC(=O)CCC(=O)NCCCOCCOCCOCCCNC(=O)CCC(=O)NCCCOCCOCCOCCCN*)C(=O)O)C(=O)O)C(=O)O; Phe(4-F) = N[C@@H](Cc1ccc(F)cc1)C(=O)O; αMeF = C[C@](N)(Cc1ccccc1)C(=O)O; Suc = O=C(CCC(=O)[*:2])[*:1]; αMeK = C[C@](N)(CCCCN)C(=O)O; hLys = NCCCCC[C@H](N)C(=O)O; Aib = CC(C)(N)C(=O)O

Data on seven compounds can be found in patent publication US11725036B2, “Modified lipidated relaxin B chain peptides and their therapeutic use” (Sanofi, priority 2018, dated 2023).

Compound `CCCCCCCCCCCCCCCC(=O)N[C@@H](CCC(=O)N[C@@H](CCC(=O)N[C@@H](CCC(=O)NCCCOCCOCCOCCCNC(=O)CCC(=O)NCCCOCCOCCOCCCNC(=O)CCC(=O)NCCCOCCOCCOCCCNC(=O)CCC(=O)NCCCC[C@H](NC(=O)CNC(=O)[C@H](CCC(=O)O)NC(=O)C(C)(C)NC(=O)C(C)(C)NC(=O)[C@@H](NC(=O)[C@H](CCCCNC(C)=O)NC(=O)C(C)(C)NC(=O)[C@H](CCCNC(=N)N)NC(=O)[C@@H](NC(=O)[C@H](CCCNC(=N)N)NC(=O)[C@H](CCC(=O)O)NC(=O)[C@H](CCCNC(=N)N)NC(=O)CNC(=O)[C@H](CCC(=O)O)NC(=O)[C@H](CC(C)C)NC(C)=O)C(C)C)[C@@H](C)CC)C(=O)N[C@@H](CO)C(=O)N[C@H](C(=O)N[C@@H](Cc1c[nH]c2ccccc12)C(=O)N[C@@H](CO)C(=O)NC(C)(C)C(=O)N[C@@H](CCCNC(=N)N)C(=O)N[C@@H](CCCNC(=N)N)C(=O)N[C@@H](CCCCNC(C)=O)C(N)=O)[C@@H](C)O)C(=O)O)C(=O)O)C(=O)O` [compound 85] (Ac-LEGRERVR[Aib]K(Ac)I[Aib][Aib]EGK([Suc-X1])STWS[Aib]RRK(Ac)-NH2) returned an EC50 of 0.3 nM and an Emax of 92%.
Taken in the same sequence, the figures for `CCCCCCCCCCCCCCCC(=O)N[C@@H](CCC(=O)N[C@@H](CCC(=O)N[C@@H](CCC(=O)NCCCOCCOCCOCCCNC(=O)CCC(=O)NCCCOCCOCCOCCCNC(=O)CCC(=O)NCCCOCCOCCOCCCNC(=O)CCC(=O)NCCCC[C@H](NC(=O)CNC(=O)[C@H](CCC(=O)O)NC(=O)[C@@H](NC(=O)C(C)(C)NC(=O)[C@@H](NC(=O)[C@H](CCCCNC(C)=O)NC(=O)[C@H](C)NC(=O)[C@H](CCCNC(=N)N)NC(=O)[C@@H](NC(=O)[C@H](CCCCN)NC(=O)[C@H](CCC(=O)O)NC(=O)[C@H](CCCNC(=N)N)NC(=O)CNC(=O)[C@H](CCC(=O)O)NC(=O)C(C)(C)NC(C)=O)C(C)C)[C@@H](C)CC)[C@@H](C)CC)C(=O)N[C@@H](CO)C(=O)N[C@H](C(=O)N[C@@H](Cc1ccccc1)C(=O)N[C@@H](CO)C(=O)N[C@@](C)(CCCCN)C(=O)N[C@@H](CCCNC(=N)N)C(=O)N[C@@H](C)C(=O)N[C@@H](CCCCNC(C)=O)C(N)=O)[C@@H](C)O)C(=O)O)C(=O)O)C(=O)O` [compound 86] (Ac-[Aib]EGREKVRAK(Ac)I[Aib]IEGK([Suc-X1])STFS[αMeK]RAK(Ac)-NH2) were 0.3 nM and 95%.
On the same counts, the results for `CCCCCCCCCCCCCCCC(=O)N[C@@H](CCC(=O)N[C@@H](CCC(=O)N[C@@H](CCC(=O)NCCCOCCOCCOCCCNC(=O)CCC(=O)NCCCOCCOCCOCCCNC(=O)CCC(=O)NCCCOCCOCCOCCCNC(=O)CCC(=O)NCCCC[C@H](NC(=O)CNC(=O)[C@H](CCC(=O)O)NC(=O)C(C)(C)NC(=O)C(C)(C)NC(=O)[C@@H](NC(=O)[C@H](CCCCNC(C)=O)NC(=O)[C@H](C)NC(=O)[C@H](CCCNC(=N)N)NC(=O)[C@@H](NC(=O)[C@H](CCCCN)NC(=O)[C@H](CCC(=O)O)NC(=O)[C@H](CCCNC(=N)N)NC(=O)CNC(=O)[C@H](CCC(=O)O)NC(=O)[C@H](CC(C)C)NC(C)=O)C(C)C)[C@@H](C)CC)C(=O)N[C@@H](CO)C(=O)N[C@H](C(=O)N[C@@H](Cc1ccccc1)C(=O)N[C@@H](CO)C(=O)N[C@@H](CCCNC(=N)N)C(=O)N[C@@H](CCCNC(=N)N)C(=O)N[C@@H](C)C(=O)N[C@@H](CCCCNC(C)=O)C(N)=O)[C@@H](C)O)C(=O)O)C(=O)O)C(=O)O` [compound 87] (Ac-LEGREKVRAK(Ac)I[Aib][Aib]EGK([Suc-X1])STFSRRAK(Ac)-NH2) are 0.1 nM and 96%.
On the same counts, the results for `CCCCCCCCCCCCCCCC(=O)N[C@@H](CCC(=O)N[C@@H](CCC(=O)N[C@@H](CCC(=O)NCCCOCCOCCOCCCNC(=O)CCC(=O)NCCCOCCOCCOCCCNC(=O)CCC(=O)NCCCOCCOCCOCCCNC(=O)CCC(=O)NCCCC[C@H](NC(=O)CNC(=O)[C@H](CCC(=O)O)NC(=O)C(C)(C)NC(=O)C(C)(C)NC(=O)[C@@H](NC(=O)[C@H](CCCCNC(C)=O)NC(=O)[C@H](C)NC(=O)[C@H](CCCNC(=N)N)NC(=O)[C@@H](NC(=O)[C@H](CCCCN)NC(=O)[C@H](CCC(=O)O)NC(=O)[C@H](CCCNC(=N)N)NC(=O)CNC(=O)[C@H](CCC(=O)O)NC(=O)[C@H](CC(C)C)NC(C)=O)C(C)C)[C@@H](C)CC)C(=O)N[C@@H](CO)C(=O)N[C@H](C(=O)N[C@@H](Cc1ccccc1)C(=O)N[C@@H](CO)C(=O)N[C@@H](CCCCCN)C(=O)N[C@@H](CCCNC(=N)N)C(=O)N[C@@H](C)C(=O)N[C@@H](CCCCNC(C)=O)C(N)=O)[C@@H](C)O)C(=O)O)C(=O)O)C(=O)O` [compound 88] (Ac-LEGREKVRAK(Ac)I[Aib][Aib]EGK([Suc-X1])STFS[hLys]RAK(Ac)-NH2) are 0.17 nM and 96%.
The compound `CCCCCCCCCCCCCCCC(=O)N[C@@H](CCC(=O)N[C@@H](CCC(=O)N[C@@H](CCC(=O)NCCCOCCOCCOCCCNC(=O)CCC(=O)NCCCOCCOCCOCCCNC(=O)CCC(=O)NCCCOCCOCCOCCCNC(=O)CCC(=O)NCCCC[C@H](NC(=O)CNC(=O)[C@H](CCC(=O)O)NC(=O)C(C)(C)NC(=O)C(C)(C)NC(=O)[C@@H](NC(=O)[C@H](CCCCNC(C)=O)NC(=O)[C@H](C)NC(=O)[C@H](CCCNC(=N)N)NC(=O)[C@@H](NC(=O)[C@H](CCCCN)NC(=O)[C@H](CCC(=O)O)NC(=O)[C@H](CCCNC(=N)N)NC(=O)CNC(=O)[C@H](CCC(=O)O)NC(=O)[C@H](CC(C)C)NC(C)=O)C(C)C)[C@@H](C)CC)C(=O)N[C@@H](CO)C(=O)N[C@H](C(=O)N[C@@](C)(Cc1ccccc1)C(=O)N[C@@H](CO)C(=O)N[C@@H](CCCNC(=N)N)C(=O)N[C@@H](CCCNC(=N)N)C(=O)N[C@@H](C)C(=O)N[C@@H](CCCCNC(C)=O)C(N)=O)[C@@H](C)O)C(=O)O)C(=O)O)C(=O)O` [compound 89] (Ac-LEGREKVRAK(Ac)I[Aib][Aib]EGK([Suc-X1])ST[αMeF]SRRAK(Ac)-NH2) showed an EC50 of 0.1 nM and an Emax of 97%.
On the same counts, the results for `CCCCCCCCCCCCCCCC(=O)N[C@@H](CCC(=O)N[C@@H](CCC(=O)N[C@@H](CCC(=O)NCCCOCCOCCOCCCNC(=O)CCC(=O)NCCCOCCOCCOCCCNC(=O)CCC(=O)NCCCOCCOCCOCCCNC(=O)CCC(=O)NCCCC[C@H](NC(=O)CNC(=O)[C@H](CCC(=O)O)NC(=O)C(C)(C)NC(=O)[C@H](C)NC(=O)[C@@H](NC(=O)[C@H](CCCCNC(C)=O)NC(=O)[C@H](C)NC(=O)[C@H](CCCNC(=N)N)NC(=O)[C@@H](NC(=O)[C@H](CCCCN)NC(=O)[C@H](CCC(=O)O)NC(=O)[C@H](CCCNC(=N)N)NC(=O)CNC(=O)[C@H](CCC(=O)O)NC(=O)[C@H](CC(C)C)NC(C)=O)C(C)C)[C@@H](C)CC)C(=O)N[C@@H](CO)C(=O)N[C@H](C(=O)N[C@@H](Cc1ccccc1)C(=O)N[C@@H](CO)C(=O)N[C@@](C)(CCCCN)C(=O)N[C@@H](CCCNC(=N)N)C(=O)N[C@@H](C)C(=O)N[C@@H](CCCCNC(C)=O)C(N)=O)[C@@H](C)O)C(=O)O)C(=O)O)C(=O)O` [compound 90] (Ac-LEGREKVRAK(Ac)IA[Aib]EGK([Suc-X1])STFS[αMeK]RAK(Ac)-NH2) are 0.14 nM and 97%.
Taken in the same sequence, the figures for `CCCCCCCCCCCCCCCC(=O)N[C@@H](CCC(=O)N[C@@H](CCC(=O)N[C@@H](CCC(=O)NCCCOCCOCCOCCCNC(=O)CCC(=O)NCCCOCCOCCOCCCNC(=O)CCC(=O)NCCCOCCOCCOCCCNC(=O)CCC(=O)NCCCC[C@H](NC(=O)CNC(=O)[C@H](CCC(=O)O)NC(=O)C(C)(C)NC(=O)C(C)(C)NC(=O)[C@@H](NC(=O)[C@H](CCCCNC(C)=O)NC(=O)[C@H](C)NC(=O)[C@H](CCCNC(=N)N)NC(=O)[C@@H](NC(=O)[C@H](CCCNC(=N)N)NC(=O)[C@H](CCC(=O)O)NC(=O)[C@H](CCCNC(=N)N)NC(=O)CNC(=O)[C@H](CCC(=O)O)NC(=O)[C@H](CC(C)C)NC(C)=O)C(C)C)[C@@H](C)CC)C(=O)N[C@@H](CO)C(=O)N[C@H](C(=O)N[C@@H](Cc1ccc(F)cc1)C(=O)N[C@@H](CO)C(=O)NC(C)(C)C(=O)N[C@@H](CCCNC(=N)N)C(=O)N[C@@H](CCCNC(=N)N)C(=O)N[C@@H](CCCCNC(C)=O)C(N)=O)[C@@H](C)O)C(=O)O)C(=O)O)C(=O)O` [compound 91] (Ac-LEGRERVRAK(Ac)I[Aib][Aib]EGK([Suc-X1])ST[Phe(4-F)]S[Aib]RRK(Ac)-NH2) were 0.09 nM and 97%.
